# PubChem BioAssay AID488967 (The Scripps Research Institute Molecular Screening Center, 2010)
# Calls of active or inactive are those of the source. How the calls were made is not given here.
# Test system: SARS coronavirus 3C-like protease (3CLpro, nsp5)
# Test: blockers of SARS 3CLpro activity – biochemical, fluorescence, assay provider results, late-stage follow-up (AID 488967)
# Settings: recombinant 3CLpro, fluorogenic peptide cleavage; at 100 µM; stronger effect = higher value
row,Structure (SMILES),inhibition
1,CC(C)(C)NC(=O)C(c1ccsc1)N(C(=O)Cn1nnc2ccccc21)c1ccc(NC(=O)C2CC2)cc1 (configuration not stated),85.7%
2,O=C(Nc1ccc(N(Cc2ccsc2)C(=O)Cn2nnc3ccccc32)cc1)C1CCC1,85.7%
3,CC(C)(C)NC(=O)C(c1ccsc1)N(C(=O)Cn1nnc2ccccc21)c1ccc(NC(=O)c2ccno2)cc1 (configuration not stated),59.4%
4,CC(C)(C)NC(=O)C(c1cccc(F)c1)N(C(=O)Cn1nnc2ccccc21)C1CC2CCC1C2 (configuration not stated),32.7% (inactive)
5,O=C(NCc1ccccc1)C(c1cccc(F)c1)N(C(=O)Cn1nnc2ccccc21)C1CC2CCC1C2 (configuration not stated),42.5% (inactive)
6,CC(C)C(=O)Nc1ccc(N(Cc2ccsc2)C(=O)Cn2nnc3ccccc32)cc1,83.6%
7,CC(C)(C)NC(=O)C(c1cccc(F)c1)N(C(=O)Cn1nnc2ccccc21)C12CC3CC(CC(C3)C1)C2 (configuration not stated),10.6% (inactive)
8,CC(C)(C)NC(=O)C(c1cccnc1)N(C(=O)Cc1cnc[nH]1)c1ccc(C(C)(C)C)cc1 (configuration not stated),15.7% (inactive)
9,O=C(Nc1ccc(N(Cc2ccsc2)C(=O)Cn2nnc3ccccc32)cc1)C1CCCCC1,22.1% (inactive)
10,CC(C)(C)NC(=O)C(c1ccsc1)N(C(=O)Cn1nnc2ccccc21)c1ccc(NC(=O)C(C)(C)C)cc1 (configuration not stated),77.4%
11,CC(C)(C)NC(=O)C(c1ccsc1)N(C(=O)Cn1nnc2ccccc21)c1ccc(NC(=O)c2cccs2)cc1 (configuration not stated),14.6% (inactive)
12,CC(C)(C)NC(=O)C(c1cccnc1)N(C(=O)c1ccc[nH]1)c1ccc(C(C)(C)C)cc1 (configuration not stated),18.6% (inactive)
13,CC(C)(C)NC(=O)C(c1cccnc1)N(C(=O)c1ccc(Cl)o1)c1ccc(C(C)(C)C)cc1 (configuration not stated),89.6%
14,CCC(C)c1ccc(N(C(=O)c2ccco2)[C@@H](C(=O)NC(C)(C)C)c2cccnc2)cc1 (some centres not stated),-3.8% (inactive)
15,O=C(Nc1ccc(N(Cc2ccsc2)C(=O)Cn2nnc3ccccc32)cc1)c1cccs1,32.9% (inactive)
16,CC(=O)Nc1ccc(N(C(=O)Cn2nnc3ccccc32)C(C(=O)NC(C)(C)C)c2cccc(F)c2)cc1 (configuration not stated),90.2%

row,Structure (SMILES),inhibition
1,CC(C)(C)NC(=O)C(c1cncnc1)N(C(=O)c1cnc[nH]1)c1ccc(C(C)(C)C)cc1 (configuration not stated),66.8%
2,CC(C)(C)NC(=O)[C@@H](c1cccnc1)N(C(=O)c1ccco1)c1ccc(C(C)(C)C)cc1,98.8%
3,CC(C)(C)NC(=O)C(c1ccsc1)N(C(=O)Cn1nnc2ccccc21)c1ccc(NC(=O)C2CCCCC2)cc1 (configuration not stated),84.9%
4,CC(C)(C)NC(=O)C(c1ccsc1)N(C(=O)Cn1nnc2ccccc21)c1ccc(NC(=O)c2ccccc2)cc1 (configuration not stated),-7% (inactive)
5,CC(=O)Nc1ccc(N(C(=O)Cn2nnc3ccccc32)C(C(=O)NCc2ccccc2)c2cccc(F)c2)cc1 (configuration not stated),84.7%
6,CC(C)(C)NC(=O)C(c1cccnc1)N(C(=O)c1ncco1)c1ccc(C(C)(C)C)cc1 (configuration not stated),51.6%
7,CC(C)(C)NC(=O)[C@H](c1cccnc1)N(C(=O)c1ccco1)c1ccc(C(C)(C)C)cc1,25% (inactive)
8,CC(C)(C)C(=O)Nc1ccc(N(Cc2ccsc2)C(=O)Cn2nnc3ccccc32)cc1,86.3%
9,CC(C)(C)NC(=O)C(c1cncnc1)N(C(=O)c1cnco1)c1ccc(C(C)(C)C)cc1 (configuration not stated),36.2% (inactive)
10,CC(C)(C)NC(=O)C(c1ccsc1)N(C(=O)Cn1nnc2ccccc21)c1ccc(NC(=O)C2CCC2)cc1 (configuration not stated),22.7% (inactive)
11,O=C(Nc1ccc(N(Cc2ccsc2)C(=O)Cn2nnc3ccccc32)cc1)C1CC1,82.8%
12,CCC(C)c1ccc(N(C(=O)c2ccco2)[C@H](C(=O)NC(C)(C)C)c2cccnc2)cc1 (some centres not stated),93.1%
13,CC(C)COC(=O)Nc1ccc(N(C(=O)Cn2nnc3ccccc32)C(C(=O)NC(C)(C)C)c2ccsc2)cc1 (configuration not stated),0.9% (inactive)
14,CC(C)COC(=O)Nc1ccc(N(Cc2ccsc2)C(=O)Cn2nnc3ccccc32)cc1,10.3% (inactive)
15,O=C(Nc1ccc(N(Cc2ccsc2)C(=O)Cn2nnc3ccccc32)cc1)c1ccccc1,18.2% (inactive)
16,O=C(NCc1ccccc1)C(c1cccc(F)c1)N(C(=O)Cn1nnc2ccccc21)C12CC3CC(CC(C3)C1)C2 (configuration not stated),11.1% (inactive)
